{
  "source": "patent US20030134779A1",
  "about": "“Method and composition for treatment and/or prevention of antibiotic-resistant microorganism infections” (priority 2002, published 2003)",
  "key": {"[1]": {"tested_on": "S. aureus FAR 8", "assay": "MIC of penicillin G alone or with bovine LF, macrodilution", "type": "cell-based", "settings": "Staphylococcus aureus, strain β-lactamase +D, read-out: MICs of penicillin G", "excerpt": "(§1) Staphylococcus aureus strains ATCC 25923 and 6538 and Escherichia coli ATCC 25922 were obtained from the American Type Culture Collection. Eight bovine mastitis clinical isolates of S. aureus (SHY97-3906, -3923, -4085 -4242, -4320 and -4343, RFT-1 and RFT-5) and one isolate of E. coli SHY97-3923-2 and one isolate of Kiebsiella pneumoniae SHY99-723-1 were kindly provided by the Laboratoire Provincial de Pathologie Animale of St-Hyacinthe and of Rock-Forest (Quebec, Canada), respectively. Nine β-lactam antibiotics resistant S. aureus strains (PC-1, NCTC 9789, 2076, 22260, ST79/741, 3804, RN9, FAR8, and FAR10) were obtained from Vanderbilt University School of Medicine (Nashville, Tenn., USA). All the culture media were from Difco Laboratories (Detroit, Mich.). Bacteria from frozen stock at −80° C. were streaked onto tryptic soy agar plates suplemented with 5% of defibrinated sheep blood (Quelab, Montreal, QC, Canada) or Brain Heart infusion agar plates. Plates were then incubated for 16 to 24 h at 37° C. For most experiments, the strains were subcultured onto Mueller Hinton agar plates (MHA) or broth (MHB) for an additional 16-20 h. Aqueous solutions of the tested products were added by filtration through a sterile filter assembly (pore size 0.2 μm, Fisher, Ottawa, Ontario).\n(§2) The MICs were determined by both macrodilution (1 ml/tube) and microdilution (100 μl/well) in sterile 96 well microtiter plates (International Nunc, Napierville, Ill.) techniques in three separate experiments according to the National Committee for Clinical Laboratory Standards (1992 and 1999) in three separate experiments. Serial 2-fold dilutions in MHB of LF, LFC, antibiotic or combination of LF or LFC with antibiotic were inoculated with an overnight culture at a final inoculum of 10^6 cfu/ml in MHB. Effect of LF combination with antibiotic on MICs were determined by adding 0.5 mg or 1 mg/ml of LF to each antibiotic dilution. The MIC was defined as the lowest concentration of drug (highest dilution) that caused a complete inhibition of bacterial growth after an incubation of 18 h. Effect of LF or LFC combination with antibiotic on MIC was also determined by checkerboard method using 96 well microtiter plates. Each antibiotic dilution (50 μl) was serially added to the wells in vertical rows starting from the top (lower dilution) to the bottom. Lactoferrin or LFC (50 μl) were added to 50 μl of each antibiotic dilution and serially diluted starting at the left (lower dilution) to the right. After inoculation, the final concentration of antibiotic from top to bottom were 32 to 8, 2 to 0.5, 0.5 to 0.125 μg/ml for penicillin, cefazolin and neomycin, respectively. From left to right, the concentration of LF or LFC were 25 to 0.0244 mg/ml or 256 to 0.5 μg/ml respectively in a final volume of 100 μl/well. The microplate's were incubated at 37° C. for 24 h. Bacterial growth was measured optically at 540 nm using Spectra Max 250 Microplate Spectrophotometer System of Molecular Device (Fisher Scientific, Ottawa, Canada). Tubes were incubated at 37° C. for 18 h and bacterial growth was measured by visual examination and optically at 540 nm using a spectrophotometer (Philips PU 8800; Pye Unican Ltd, Cambridge, UK). The fractional inhibitory concentration (FIC) was calculated as described by Eliopoulos and Moellering (1991)."}, "[2]": {"tested_on": "S. aureus PC-1", "assay": "MIC of penicillin G alone or with bovine LF, macrodilution", "type": "cell-based", "settings": "Staphylococcus aureus, strain β-lactamase +A constitutive", "excerpt": "as §1, §2"}, "[3]": {"tested_on": "S. aureus SHY97-3923", "assay": "MIC of penicillin G alone or with bovine LF, macrodilution", "type": "cell-based", "settings": "Staphylococcus aureus, strain β-lactamase type −, read-out: MICs of penicillin G", "excerpt": "as §1, §2"}, "[4]": {"tested_on": "S. aureus SHY97-4320", "assay": "MIC of penicillin G alone or with bovine LF, macrodilution", "type": "cell-based", "settings": "Staphylococcus aureus, strain β-lactamase + uncharacterised, read-out: MICs of penicillin G", "excerpt": "as §1, §2"}, "[5]": {"tested_on": "S. aureus ATCC 25923", "assay": "Cell morphology by transmission electron microscopy", "type": "cell-based, Staphylococcus aureus", "description": "Bacterial cells were grown overnight on MHA or MHB containing sub-MICs of penicillin G with or without LF or LFC. Microorganisms were prepared for transmission electron microscopy by fixation with glutaraldehyde followed by ferritin labelling. This method allows good- preservation of capsular material. Briefly, bacterial cells grown in the presence or absence of antibiotics were fixed in cacodylate buffer (0.1 M, pH 7.0) containing 5% (v/v) glutaraldehyde, for 2 h at 20° C. Fixed microorganims were suspended in cacodylate buffer and allowed to react with the polycationic ferritin (Sigma Chemicals, St-Louis, Mo.; final concentration 1.0 mg/ml) for 30 min at 20° C. The reaction was slowed down by 10-fold dilution with buffer, and the microorganisms were centrifuged and washed three times in cacodylate buffer. Bacterial cells were then immobilized in 4% (w/v) agar, washed 5 times in cacodylate buffer and post-fixed with 2% (w/v) osmium tetroxide for 2 h. Washings were repeated as above, and the samples dehydrated in a graded series of acetone washes. Samples were then washed twice in propylene oxide and embedded in Spurr low-viscosity resin. Thin sections were post-stained with uranyl acetate and lead citrate and examined with an electron microscope (Philips 201) at an accelerating voltage of 60 kV."}, "[6]": {"tested_on": "β-lactamase activity of S. aureus SHY97-4320", "assay": "β-lactamase activity, nitrocefin assay, human LF", "type": "cell-based, Staphylococcus aureus", "settings": "8-μg/ml penicillin G alone", "description": "Penicillin G was purchased from Novopharm Limited (Toronto, Ontario, Canada). […] Antibiotic stock solutions were always freshly prepared and diluted to the desired concentration in Mueller Hinton broth (MHB) medium (Difco Laboratories, Detroit, MI). β-Lactamase activity was measured using a quantitative spectrophotometric assay with the chromogenic cephalosporin nitrocefin. Bacterial cells were first exposed to penicillin and/or LF during 4 and 22-h in broth. At each time point, the number of cfu/ml were determined and cells aliquots were centrifuged.\nThe pellets were suspended in 10 mM HEPES buffer (pH 7.4) to an OD415 nm of 0.4 for PC-1 and 4 for strain SHY97-4320. Nitrocefin (100 μM) was added to 20 μl of cells in a final volume of 200 μl. Hydrolysis was measured at 486 nm on a Spectra Max 250 Microplate Spectrophotometer System of Molecular Device (Fisher Scientific, Ottawa, Canada). β-Lactamase activity was expressed as ΔO.D.486 nm/min and corrected for bacterial OD."}},
  "note": "Where two headings read alike, the source gives them in different places.",
  "data": [
    {"smiles": "CC1(C)S[C@@H]2[C@H](NC(=O)Cc3ccccc3)C(=O)N2[C@H]1C(=O)O", "note": "[penicillin G, Penicillin G]", "values": [
      {"measurement": "MIC", "setting": "[1]; FAR8, +0.5 mg/ml LF", "result": 8, "unit": "µg/mL"},
      {"measurement": "MIC", "setting": "[1]; FAR8, +1 mg/ml LF", "result": 8, "unit": "µg/mL"},
      {"measurement": "MIC", "setting": "[1]; FAR8, Alone", "result": 16, "unit": "µg/mL"},
      {"measurement": "MIC", "setting": "[2]; PC1, read-out: MICs of penicillin G, +0.5 mg/ml LF", "result": 128, "unit": "µg/mL"},
      {"measurement": "MIC", "setting": "[2]; PC1, read-out: MICs of penicillin G, +1 mg/ml LF", "result": 128, "unit": "µg/mL"},
      {"measurement": "MIC", "setting": "[2]; PC1, read-out: MICs of penicillin G, Alone", "result": "> 128", "unit": "µg/mL"},
      {"measurement": "MIC", "setting": "[3]; SHY973923, +0.5 mg/ml LF", "result": 0.007, "unit": "µg/mL"},
      {"measurement": "MIC", "setting": "[3]; SHY973923, +1 mg/ml LF", "result": 0.007, "unit": "µg/mL"},
      {"measurement": "MIC", "setting": "[3]; SHY973923, Alone", "result": 0.015, "unit": "µg/mL"},
      {"measurement": "MIC", "setting": "[4]; SHY974320, +0.5 mg/ml LF", "result": 32, "unit": "µg/mL"},
      {"measurement": "MIC", "setting": "[4]; SHY974320, +1 mg/ml LF", "result": 32, "unit": "µg/mL"},
      {"measurement": "MIC", "setting": "[4]; SHY974320, Alone", "result": 64, "unit": "µg/mL"},
      {"measurement": "cell morphology", "setting": "[5]; penicillin G 0.0078 μg/ml alone, 18-h", "result": "induced formation of large symmetrically arranged pseudomulticellular staphylococci"},
      {"measurement": "cell morphology", "setting": "[5]; penicillin G 0.0078 μg/ml with LF 9.1 μg/ml", "result": "asymmetrically arranged pseudomulticellular staphylococci were formed"},
      {"measurement": "β-lactamase activity", "setting": "[6]", "result": "present"}
    ]}
  ]
}
